# In patent US20210338842A1, “DUAL-MODALITY NANOPROBE TARGETING GLIOBLASTOMA AND PREPARATION METHOD THEREOF” (West China Hospital of Sichuan University, priority 2020, published 2021):
# Assay: Evaluation of restricted permeability of in vitro BBB model with fluorescein sodium (Transwell)
# Assay type: in vitro ADME, mouse
# Settings: NaFl 10 μg/mL in upper chamber, read-out: permeability coefficient Papp
# Procedure: Experimental method: an in vitro blood-brain barrier model was established to evaluate the permeability of dual-modality nanoprobes. U87-MG cells and bEnd.3 cells were cultured in high glucose DMEM containing 10% fetal bovine serum and 1% penicillin/streptomycin at 37° C. and 5% CO2. A thin layer of collagen solution was evenly coated on the inner side of Transwell poly microporous lipid membrane, the membrane was placed on an ultra-clean table for about 30 min, and it was used after naturally dried. bEnd.3 cells were inoculated into the upper chamber of a 24-well Transwell at a density of 5×10^4 cells/well. Two days later, U87-MG cells were inoculated into the lower chamber of the upper chamber at a density of 1×10^5 cells/well, and the two kind of cells were continued to co-culture for one week.
# The permeability of BBB in vitro was evaluated by fluorescein sodium, and a series of standard solutions of fluorescein sodium (NaFl) were prepared with PBS, with the concentrations of 0.05, 0.10, 0.15, 0.20, 0.25, 0.30, 0.35, 0.40, 0.45 and 0.50 μg/mL, respectively. The absorbance value was measured with a multifunctional ELISA reader (the excitation wavelength was set at 485 nm and the detection wavelength was 535 nm). Then the standard curve of NaFl concentration and absorbance value was made. […]
smiles,measurement,setting,value
"O=C1OC2(c3ccc(O)cc3Oc3cc(O)ccc32)c2ccccc21 [NaFl, Fluorescein sodium]",Papp A→B at 10 μg/mL,"mouse, BBB model group, 30, 60, 90 min",11.2 ± 0.73 ×10⁻⁶ cm/s
same,Papp at 10 μg/mL,small blank chamber (no cells),67.8 ×10⁻⁶ cm/s
